Legend:
[1] = test system: HBV (HepG2.117 cell line, inducibly HBV producing); experiment: Anti-HBV activity, intracellular HBV DNA by real-time PCR in HepG2.117 cell line; format: cell-based, hepatitis B virus; settings: HepG2.117 cells, 3 days of treatment
Procedure: The anti HBV activity was measured using the HepG2.117 cell line, a stable, inducibly HBV producing cell line, which replicates HBV in the absence of doxycycline (Tet-off system). The HepG2 cell line is available from ATCCR under number HB-8065. Transfection of the HepG2 cell line can be as described in Sun and Nassal 2006 Journal of Hepatology 45 (2006) 636-645 “Stable HepG2- and Huh7-based human hepatoma cell lines for efficient regulated expression of infectious hepatitis B virus”.
For the antiviral assay, HBV replication was induced, followed by a treatment with serially diluted compound in 96-well plates. After 3 days of treatment, the antiviral activity was determined by quantification of intracellular HBV DNA using real-time PCR and an HBV specific primer set and probe.

[2] = Cytotoxicity, ATPlite Luminescence Assay; format: cell-based, human; settings: human, HepG2 or HepG2.117 cells, 3-days incubation unless marked with *
Procedure: Cytotoxicity of the compounds was tested using HepG2 or HepG2.117 cells, incubated for 3 or 4 days in the presence of compounds. The viability of the cells was assessed using the PERKIN ELMER ATPlite Luminescence Assay System.”

[3] = Human liver microsome stability; format: in vitro ADME; settings: 1 μM compound, NADPH 1 mM, 37° C., 0-60 min; for half-life at 1 μM: human, pooled human liver microsomes, pH 7.4, pooled human liver microsomes 0.5 mg/mL, read-out: HLM Metabolism t1/2; for HLM Metabolism t1/2: pooled human liver microsomes 0.5 mg/mL
Procedure: Human Liver Microsome Stability t½ (Min) of Compounds of Formula (I) […] All incubations are performed singularly for each compound. NADPH was added to initiate the reaction with the final concentration of 1 mM and the final incubation volume of 400 μL. At 6 time points (0, 5, 10, 20, 40 and 60 min) reactions were stopped by the removal of 50 μL of the incubation mixture into plates containing acetonitrile at a of 1:3 (v:v). The plates were centrifuged at 3000 rpm for 10 min at 4° C. to precipitate the protein. Following protein precipitation, the sample supernatants were combined in cassettes of up to 8 compounds. The internal standard was added (1:1 supernatant to internal standard solution) and samples were analyzed using standard LC-MS conditions. From a plot of ln peak area ratio (compound peak area/internal standard peak area) against time, the gradient of the line is determined. Subsequently, half-life is calculated using the equations below: Elimination rate constant (k)=(−gradient) […]

[4] = Hepatitis B virus, HepG2.117, 72 h

Work on CNS(=O)(=O)c1ccc(C(C)N2C[C@@H](C)n3nc4c(c3C2=O)CN(C(=O)c2ccc(Cl)c(Cl)c2)[C@H](C)C4)cc1 (single isomer, unassigned) [Compound 17A, 4-((R*)-1-((3R,7R)-2-(3,4-dichlorobenzoyl)-3,7-dimethyl-10-oxo-1,3,4,7,8,10-hexahydropyrido[4′,3′:3,4]pyrazolo[1,5-a]pyrazin-9(2H)-yl)ethyl)-N-methylbenzenesulfonamide] yielded an EC50 [1] of 0.077 µM, a CC50 at 3 days [2] of over 50 µM and a half-life at 1 μM [3] of 2.9 h.

With CC(c1ccc(-c2ccn(C)n2)cc1)N1C[C@@H](C)n2nc3c(c2C1=O)CN(C(=O)c1ccc(Cl)c(C#N)c1)[C@H](C)C3 (single isomer, unassigned) [Compound 21A, 2-Chloro-5-((3R,7R)-3,7-dimethyl-9-((R*)-1-(4-(1-methyl-1H-pyrazol-3-yl)phenyl)ethyl)-10-oxo-1,2,3,4,7,8,9,10-octahydropyrido[4′,3′:3,4]pyrazolo[1,5-a]pyrazine-2-carbonyl)benzonitrile] the EC50 [1] was 0.035 µM, the CC50 at 3 days [2] was over 50 µM and the “HLM Metabolism t1/2” value [3] was 0.98 h.

Cc1nnn(-c2ccc(C(C)N3C[C@@H](C)n4nc5c(c4C3=O)CN(C(=O)c3ccc(Cl)c(Cl)c3)[C@H](C)C5)cc2)n1 (single isomer, unassigned) [Compound 22A, (3R,7R)-2-(3,4-dichlorobenzoyl)-3,7-dimethyl-9-((R*)-1-(4-(5-methyl-2H-tetrazol-2-yl)phenyl)ethyl)-1,2,3,4,8,9-hexahydropyrido[4′,3′:3,4]pyrazolo[1,5-a]pyrazin-10(7H)-one] showed an EC50 [1, 4] of 0.034 µM, a CC50 at 3 days [2] of over 50 µM and a half-life at 1 μM [3] of 1.35 h.

For CNC(=O)C(c1ccc(OC(F)F)cc1)N1C[C@@H](C)n2nc3c(c2C1=O)CN(C(=O)c1ccc(Cl)c(Cl)c1)[C@H](C)C3 (single isomer, unassigned) [Compound 23A, (R*)-2-((3R,7R)-2-(3,4-dichlorobenzoyl)-3,7-dimethyl-10-oxo-1,3,4,7,8,10-hexahydropyrido[4′,3′:3,4]pyrazolo[1,5-a]pyrazin-9(2H)-yl)-2-(4-(difluoromethoxy)phenyl)-N-methylacetamide], the EC50 [1] was 0.066 µM, the CC50 at 3 days [2] was 32.1 µM and the half-life at 1 μM [3] was 1.88 h.

CNC(=O)c1ccc(C(C)N2C[C@@H](C)n3nc4c(c3C2=O)CN(C(=O)c2ccc(Cl)c(Cl)c2)[C@H](C)C4)cn1 (single isomer, unassigned) [Compound 24A, 5-((R*)-1-((3R,7R)-2-(3,4-dichlorobenzoyl)-3,7-dimethyl-10-oxo-1,3,4,7,8,10-hexahydropyrido[4′,3′:3,4]pyrazolo[1,5-a]pyrazin-9(2H)-yl)ethyl)-N-methylpicolinamide] gave an EC50 [1, 4] of 0.038 µM, a CC50 at 3 days [2] of over 50 µM and a half-life at 1 μM [3] of over 3 h.

With Cc1nnn(-c2ccc(C(C)N3C[C@@H](C)n4nc5c(c4C3=O)CN(C(=O)c3ccc(Cl)c(Cl)c3)[C@H](C)C5)cn2)n1 (single isomer, unassigned) [Compound 26A, (3R,7R)-2-(3,4-dichlorobenzoyl)-3,7-dimethyl-9-((R*)-1-(6-(5-methyl-2H-tetrazol-2-yl)pyridin-3-yl)ethyl)-1,2,3,4,8,9-hexahydropyrido[4′,3′:3,4]pyrazolo[1,5-a]pyrazin-10(7H)-one] the EC50 [1] was 0.14 µM, the CC50 at 3 days [2] was over 50 µM and the half-life at 1 μM [3] was 1.38 h.

In the case of Cc1nnnn1-c1ccc(C(C)N2C[C@@H](C)n3nc4c(c3C2=O)CN(C(=O)c2ccc(Cl)c(Cl)c2)[C@H](C)C4)cn1 (single isomer, unassigned) [Compound 27A, (3R,7R)-2-(3,4-dichlorobenzoyl)-3,7-dimethyl-9-((R*)-1-(6-(5-methyl-1H-tetrazol-1-yl)pyridin-3-yl)ethyl)-1,2,3,4,8,9-hexahydropyrido[4′,3′:3,4]pyrazolo[1,5-a]pyrazin-10(7H)-one], the EC50 [1] is reported as 0.24 µM, the CC50 at 3 days [2] is reported as over 50 µM and the “HLM Metabolism t1/2” value [3] is reported as over 3 h.

For CC(c1ccc(N2CCCS2(=O)=O)nc1)N1C[C@@H](C)n2nc3c(c2C1=O)CN(C(=O)c1ccc(Cl)c(C(F)(F)F)c1)[C@H](C)C3 (single isomer, unassigned) [Compound 28A, (3R,7R)-2-(4-chloro-3-(trifluoromethyl)benzoyl)-9-((R*)-1-(6-(1,1-dioxidoisothiazolidin-2-yl)pyridin-3-yl)ethyl)-3,7-dimethyl-1,2,3,4,8,9-hexahydropyrido[4′,3′: 3,4]pyrazolo[1,5-a]pyrazin-10(7H)-one], the EC50 [1, 4] was 0.012 µM, the CC50 at 3 days [2] was over 50 µM and the “HLM Metabolism t1/2” value [3] was 0.835 h.

In the case of CC(c1ccnc(Cl)c1)N1C[C@@H](C)n2nc3c(c2C1=O)CN(C(=O)c1ccc(Cl)c(Cl)c1)[C@H](C)C3 (single isomer, unassigned) [Compound 31A, (3R,7R)-9-((R*)-1-(2-chloropyridin-4-yl)ethyl)-2-(3,4-dichlorobenzoyl)-3,7-dimethyl-1,2,3,4,8,9-hexahydropyrido[4′,3′:3,4]pyrazolo[1,5-a]pyrazin-10(7H)-one], the EC50 [1] is reported as 0.051 µM, the CC50 at 3 days [2] is reported as 31.5 µM and the half-life at 1 μM [3] is reported as 1.9 h.

Work on CC(c1cc(F)ccn1)N1C[C@@H](C)n2nc3c(c2C1=O)CN(C(=O)c1ccc(Cl)c(Cl)c1)[C@H](C)C3 (single isomer, unassigned) [Compound 32A] yielded an EC50 [1] of 0.016 µM, a CC50 at 3 days [2] of over 50 µM and a half-life at 1 μM [3] of 1.68 h.

CC(c1ccc(NS(C)(=O)=O)cn1)N1C[C@@H](C)n2nc3c(c2C1=O)CN(C(=O)c1ccc(Cl)c(C(F)(F)F)c1)[C@H](C)C3 (single isomer, unassigned) [Compound 33A, N-(6-((R*)-1-((3R,7R)-2-(4-chloro-3-(trifluoromethyl)benzoyl)-3,7-dimethyl-10-oxo-1,3,4,7,8,10-hexahydropyrido[4′,3′:3,4]pyrazolo[1,5-a]pyrazin-9(2H)-yl)ethyl)pyridin-3-yl)methanesulfonamide] gave an EC50 [1, 4] of 0.036 µM, a CC50 at 3 days [2] of over 50 µM and a half-life at 1 μM [3] of over 3 h.

Work on CC(c1cnc(C(F)(F)F)nc1)N1C[C@@H](C)n2nc3c(c2C1=O)CN(C(=O)c1ccc(Cl)c(Cl)c1)[C@H](C)C3 (single isomer, unassigned) [Compound 34A, (3R,7R)-2-(3,4-dichlorobenzoyl)-3,7-dimethyl-9-((R*)-1-(2-(trifluoromethyl)pyrimidin-5-yl)ethyl)-1,2,3,4,8,9-hexahydropyrido[4′,3′:3,4]pyrazolo[1,5-a]pyrazin-10(7H)-one] yielded an EC50 [1] of 0.63 µM, a CC50 at 3 days [2] of over 50 µM and a half-life at 1 μM [3] of over 3 h.

With CC(c1cnc(C(C)(C)O)nc1)N1C[C@@H](C)n2nc3c(c2C1=O)CN(C(=O)c1ccc(Cl)c(C(F)(F)F)c1)[C@H](C)C3 (single isomer, unassigned) [Compound 35A, (3R,7R)-2-(4-chloro-3-(trifluoromethyl)benzoyl)-9-((R*)-1-(2-(2-hydroxypropan-2-yl)pyrimidin-5-yl)ethyl)-3,7-dimethyl-1,2,3,4,8,9-hexahydropyrido[4′,3′:3,4]pyrazolo[1,5-a]pyrazin-10(7H)-one] the EC50 [1] was 0.2 µM, the CC50 at 3 days [2] was over 50 µM and the “HLM Metabolism t1/2” value [3] was 0.783 h.

In the case of CC(c1cnc(C(C)(C)O)nc1)N1C[C@@H](C)n2nc3c(c2C1=O)CN(C(=O)c1ccc(Cl)c(Cl)c1)[C@H](C)C3 (single isomer, unassigned) [Compound 36A, (3R,7R)-2-(3,4-Dichlorobenzoyl)-9-((R*)-1-(2-(2-hydroxypropan-2-yl)pyrimidin-5-yl)ethyl)-3,7-dimethyl-1,2,3,4,8,9-hexahydropyrido[4′,3′:3,4]pyrazolo[1,5-a]pyrazin-10(7H)-one], the EC50 [1] is reported as 0.64 µM, the CC50 at 3 days [2] is reported as over 50 µM and the half-life at 1 μM [3] is reported as over 3 h.

In the case of CC(c1cnc(NC2CC2)nc1)N1C[C@@H](C)n2nc3c(c2C1=O)CN(C(=O)c1ccc(Cl)c(Cl)c1)[C@H](C)C3 (single isomer, unassigned) [Compound 37A, (3R,7R)-9-((R*)-1-(2-(cyclopropylamino)pyrimidin-5-yl)ethyl)-2-(3,4-dichlorobenzoyl)-3,7-dimethyl-1,2,3,4,8,9-hexahydropyrido[4′,3′:3,4]pyrazolo[1,5-a]pyrazin-10(7H)-one], the EC50 [1] is reported as 0.15 µM, the CC50 at 3 days [2] is reported as over 50 µM and the “HLM Metabolism t1/2” value [3] is reported as over 3 h.
